Assay [1] deals with intracellular GCN2 (phosphorylation of the GCN2 substrate eIF2α) (Homo sapiens, UniProt Q9P2K8). The assay is described as follows: GCN2 cellular inhibition assay (AlphaScreen SureFire P-eIF2α Ser51, borrelidin-treated U2OS cells). It counts as cell-based. To be noted: compounds of Formula II; biomarker assay, phosphorylated eIF2α Ser51 in borrelidin-treated U2OS cells. An outline of the steps:
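Phospho-eIF2α (Ser51) in lysates was quantified by AlphaScreen SureFire after a 1 h, 37 °C treatment of U2OS cells with 10 μM borrelidin and compound at 4-fold dilutions starting from 40 μM final. Inhibition expressed in percent against wells stimulated by borrelidin alone.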

For a further assay, the target named is GCN2 kinase (Homo sapiens, UniProt Q9P2K8). The assay is described as follows: GCN2 enzyme inhibition assay (Transcreener ADP2 fluorescence polarization). The conditions noted are these: compounds of Formula II; 280 μM ATP, 4 nM GCN2 kinase. The assay is classed as biochemical. An outline of the steps: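 Inhibition of 4 nM GCN2 was measured with compound up to 8 μM final, ATP 280 μM and (RS)7 peptide 200 μM over a 1 h, 25 °C reaction. ADP FP readout; IC50 and Ki(app) calculated from percent inhibition.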
Sequence of GCN2 kinase (Q9P2K8 whole entry): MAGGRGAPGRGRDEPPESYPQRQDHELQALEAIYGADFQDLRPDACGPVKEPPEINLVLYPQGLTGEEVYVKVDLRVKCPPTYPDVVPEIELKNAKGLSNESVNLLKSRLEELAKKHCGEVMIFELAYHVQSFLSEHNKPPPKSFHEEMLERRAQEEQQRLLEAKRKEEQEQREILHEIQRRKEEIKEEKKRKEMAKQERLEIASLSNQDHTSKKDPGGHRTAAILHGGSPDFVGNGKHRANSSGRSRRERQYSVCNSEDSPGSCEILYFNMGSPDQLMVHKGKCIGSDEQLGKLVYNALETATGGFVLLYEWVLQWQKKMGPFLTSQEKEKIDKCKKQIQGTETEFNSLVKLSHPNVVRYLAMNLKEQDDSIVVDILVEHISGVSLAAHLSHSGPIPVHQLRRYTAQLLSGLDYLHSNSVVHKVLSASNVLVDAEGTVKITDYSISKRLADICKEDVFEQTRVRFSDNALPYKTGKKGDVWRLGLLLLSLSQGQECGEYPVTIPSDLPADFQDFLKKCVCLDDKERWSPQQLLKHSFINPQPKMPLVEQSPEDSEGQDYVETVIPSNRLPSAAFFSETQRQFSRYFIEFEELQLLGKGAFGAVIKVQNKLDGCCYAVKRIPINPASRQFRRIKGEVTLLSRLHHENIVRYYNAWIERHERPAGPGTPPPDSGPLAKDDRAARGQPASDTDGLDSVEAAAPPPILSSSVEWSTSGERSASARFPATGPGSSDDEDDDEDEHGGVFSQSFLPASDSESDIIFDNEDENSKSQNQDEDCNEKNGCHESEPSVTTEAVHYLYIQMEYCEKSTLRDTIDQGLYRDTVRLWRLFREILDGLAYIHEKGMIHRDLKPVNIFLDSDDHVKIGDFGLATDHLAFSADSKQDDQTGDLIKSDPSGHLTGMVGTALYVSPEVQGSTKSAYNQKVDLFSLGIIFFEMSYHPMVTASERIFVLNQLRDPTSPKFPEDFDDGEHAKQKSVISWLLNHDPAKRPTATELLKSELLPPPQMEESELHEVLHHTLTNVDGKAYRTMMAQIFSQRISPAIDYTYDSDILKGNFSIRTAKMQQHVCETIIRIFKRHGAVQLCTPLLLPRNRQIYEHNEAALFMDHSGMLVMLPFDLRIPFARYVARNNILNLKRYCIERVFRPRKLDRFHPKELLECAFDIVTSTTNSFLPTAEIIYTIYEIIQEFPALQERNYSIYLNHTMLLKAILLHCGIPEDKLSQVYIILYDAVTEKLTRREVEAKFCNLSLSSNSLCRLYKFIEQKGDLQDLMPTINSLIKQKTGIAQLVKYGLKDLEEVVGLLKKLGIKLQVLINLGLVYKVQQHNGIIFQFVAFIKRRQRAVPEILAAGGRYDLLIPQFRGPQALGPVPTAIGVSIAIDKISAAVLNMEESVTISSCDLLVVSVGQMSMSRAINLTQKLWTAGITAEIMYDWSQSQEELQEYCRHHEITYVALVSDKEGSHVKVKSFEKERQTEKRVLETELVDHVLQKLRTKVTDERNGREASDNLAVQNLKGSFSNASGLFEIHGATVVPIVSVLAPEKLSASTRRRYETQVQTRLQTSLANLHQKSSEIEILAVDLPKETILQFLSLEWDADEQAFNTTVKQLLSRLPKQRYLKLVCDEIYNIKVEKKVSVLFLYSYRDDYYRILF
(Polarisation of emitted light reports the rotation of a fluorescent probe.)

pIC50, pKi: −log10 of the molar value. Bounds are passed on as bounds.

Sequence of intracellular GCN2 (phosphorylation of the GCN2 substrate eIF2α) (Q9P2K8 whole entry): as above

The pIC50 is −log10 of the IC50, conventionally taken in molar units. Read a low pIC50 as a high IC50. In general, pKi refers to the Ki on a negative log10 scale, so that one unit is a factor of ten. A high value points to a low Ki. In assay [1], `CC1CN(c2cc(-c3cnc4ccc(C(F)F)nn34)ncn2)CC(CNS(C)(=O)=O)C12OCCO2` (centres unmarked) [II-527, N-((8-(6-(6-(Difluoromethyl)imidazo[1,2-b]pyridazin-3-yl)pyrimidin-4-yl)-10-methyl-1,4-dioxa-8-azaspiro[4.5]decan-6-yl)methyl)methanesulfonamide] showed a pIC50 above 6.30. The pKi on GCN2 kinase is above 8.00.

`CS(=O)(=O)NCC1CN(c2cc(-c3cnc4ccc(C(F)F)nn34)ncn2)CC2(CC2)C1(F)F` (centres unmarked) [II-528, N-((5-(6-(6-(Difluoromethyl)imidazo[1,2-b]pyridazin-3-yl)pyrimidin-4-yl)-8,8-difluoro-5-azaspiro[2.5]octan-7-yl)methyl)methanesulfonamide] showed a pIC50 in assay [1] above 6.30. For the same compound, on GCN2 kinase, the pKi is above 8.00.

In the case of `CN1CCN(c2cc(-c3cnc4ccc(C(F)F)nn34)ncn2)CC12CN(S(N)(=O)=O)C2` [II-535, 8-(6-(6-(Difluoromethyl)imidazo[1,2-b]pyridazin-3-yl)pyrimidin-4-yl)-5-methyl-2,5,8-triazaspiro[3.5]nonane-2-sulfonamide], the pIC50 in assay [1] was 5.30 to 6.30. Further, at GCN2 kinase, the pKi was 6.00 to 8.00.

`CC1CN(c2cc(-c3cnc4ccc(C(F)F)nn34)ncn2)CC(CNS(C)(=O)=O)=C1F` (centres unmarked) [II-537, N-((1-(6-(6-(Difluoromethyl)imidazo[1,2-b]pyridazin-3-yl)pyrimidin-4-yl)-4-fluoro-5-methyl-1,2,5,6-tetrahydropyridin-3-yl)methyl)methanesulfonamide] had a pIC50 in assay [1] above 6.30. Moreover, the pKi on GCN2 kinase was above 8.00.

For `CC1=C(F)C(CNS(C)(=O)=O)CN(c2cc(-c3cnc4ccc(C(F)F)nn34)ncn2)C1` (centres unmarked) [II-538, N-((1-(6-(6-(Difluoromethyl)imidazo[1,2-b]pyridazin-3-yl)pyrimidin-4-yl)-4-fluoro-5-methyl-1,2,3,6-tetrahydropyridin-3-yl)methyl)methanesulfonamide], in assay [1], the pIC50 was above 6.30. The same compound showed a pKi at GCN2 kinase above 8.00.

For the compound `CC1CC(CNS(C)(=O)=O)CN(c2cc(-c3cnc4ccc(C(F)F)nn34)ncn2)C1C` (centres unmarked) [II-544, N-((1-(6-(6-(Difluoromethyl)imidazo[1,2-b]pyridazin-3-yl)pyrimidin-4-yl)-5,6-dimethylpiperidin-3-yl)methyl)methanesulfonamide], in assay [1], the pIC50 was above 6.30. Besides, the pKi at GCN2 kinase was above 8.00.

Take `CC1C2COC(=O)N2CCN1c1cc(-c2cnc3ccc(C(F)F)nn23)ncn1` (centres unmarked) [II-547, 7-(6-(6-(Difluoromethyl)imidazo[1,2-b]pyridazin-3-yl)pyrimidin-4-yl)-8-methylhexahydro-3H-oxazolo[3,4-a]pyrazin-3-one]: the pIC50 in assay [1] was 5.30 to 6.30. The compound also gave a pKi on GCN2 kinase of 6.00 to 8.00.

`CC1NCCN(c2cc(-c3cnc4ccc(C(F)F)nn34)ncn2)C1C` (centres unmarked) [II-548, 6-(Difluoromethyl)-3-(6-(2,3-dimethylpiperazin-1-yl)pyrimidin-4-yl)imidazo[1,2-b]pyridazine] had a pIC50 in assay [1] below 5.30. The pKi on GCN2 kinase is below 6.00.

For the compound `CC1C(NS(C)(=O)=O)CCCN1c1cc(-c2cnc3ccc(C(F)F)nn23)ncn1` (centres unmarked) [II-602, N-(1-(6-(6-(Difluoromethyl)imidazo[1,2-b]pyridazin-3-yl)pyrimidin-4-yl)-2-methylpiperidin-3-yl)methanesulfonamide], in assay [1], the pIC50 was above 6.30. In addition, the pKi at GCN2 kinase was above 8.00.

The compound `C[C@@H]1C[C@H](CS(C)(=N)=O)[C@H](C)N(c2cc(-c3cnc4ccc(C(F)F)nn34)ncn2)C1` (stereo partly drawn) [II-607, (((2S,3S,5R)-1-(6-(6-(Difluoromethyl)imidazo[1,2-b]pyridazin-3-yl)pyrimidin-4-yl)-2,5-dimethylpiperidin-3-yl)methyl)(imino)(methyl)-λ^6-sulfanone] showed a pIC50 in assay [1] above 6.30. On GCN2 kinase, this compound had a pKi above 8.00.

`CC1C(CNS(C)(=O)=O)C(C)(O)C(C)CN1c1cc(-c2cnc3ccc(C(F)F)nn23)ncn1` (centres unmarked) [II-618, N-((1-(6-(6-(Difluoromethyl)imidazo[1,2-b]pyridazin-3-yl)pyrimidin-4-yl)-4-hydroxy-2,4,5-trimethylpiperidin-3-yl)methyl)methanesulfonamide] had a pIC50 in assay [1] above 6.30. The same compound had a pKi at GCN2 kinase above 8.00.

On to `N=S1(=O)CCN(c2cc(-c3cnc4ccc(C(F)F)nn34)ncn2)CC1` [II-676, 4-[6-[6-(Difluoromethyl)imidazo[1,2-b]pyridazin-3-yl]pyrimidin-4-yl]-1-imino-1,4-thiazinane 1-oxide], for which the negative logarithm of the IC50 (pIC50) in assay [1] is below 5.30. In addition, on GCN2 kinase, the pKi was 6.00 to 8.00.

In the case of `CS(=O)(=O)NCC1CCCN(c2cc(-c3cnc4ccc(C#N)nn34)ncn2)C1` (centres unmarked) [II-692, N-[[1-[6-(6-Cyanoimidazo[1,2-b]pyridazin-3-yl)pyrimidin-4-yl]-3-piperidyl]methyl]methanesulfonamide], in assay [1], the pIC50 is 5.30 to 6.30. The compound further showed a negative-log Ki (pKi) at GCN2 kinase of 6.00 to 8.00.

`CC1CN(c2cc(-c3cnc4ccc(C#N)nn34)ncn2)C(C)C(c2cn[nH]c2)N1` (centres unmarked) [II-693] had a pIC50 in assay [1] of 5.30 to 6.30. The compound also gave a pKi on GCN2 kinase of 6.00 to 8.00.

In turn, `CS(C)(=O)=NC1CC(C(F)(F)F)CN(c2cc(-c3cnc4ccc(C(F)F)nn34)ncn2)C1` (centres unmarked) [II-695, ((1-(6-(6-(Difluoromethyl)imidazo[1,2-b]pyridazin-3-yl)pyrimidin-4-yl)-5-(trifluoromethyl)piperidin-3-yl)imino)dimethyl-λ^6-sulfanone] showed a pIC50 in assay [1] of 5.30 to 6.30. Besides, the negative-log Ki (pKi) on GCN2 kinase was above 8.00.

The compound `CC1CCC(N=S(C)(C)=O)CN1c1cc(-c2cnc3ccc(C(F)F)nn23)ncn1` (centres unmarked) [II-696, [1-[6-[6-(Difluoromethyl)imidazo[1,2-b]pyridazin-3-yl]pyrimidin-4-yl]-6-methyl-3-piperidyl]imino-dimethyl-λ^6-sulfanone] showed a pIC50 in assay [1] below 5.30. Moreover, the negative-log Ki (pKi) at GCN2 kinase was 6.00 to 8.00.

`CC1CN(c2cc(-c3cnc4ccc(C(F)(F)F)nn34)ncn2)C(C)C(c2cn[nH]c2)N1` (centres unmarked) [II-698] had a pIC50 in assay [1] of 5.30 to 6.30. The compound also showed a negative-log Ki (pKi) on GCN2 kinase above 8.00.

In turn, `N#Cc1ccc2ncc(-c3cc(N4CCN5C(=O)CCCC5C4)ncn3)n2n1` (centres unmarked) [II-699, 3-(6-(6-Oxooctahydro-2H-pyrido[1,2-a]pyrazin-2-yl)pyrimidin-4-yl)imidazo[1,2-b]pyridazine-6-carbonitrile] showed a pIC50 in assay [1] below 5.30. The same compound gave a pKi at GCN2 kinase of 6.00 to 8.00.

The compound `CS(C)(=O)=NC1CCCN(c2cc(-c3cnc4ccc(C(F)F)nn34)ncn2)C1C(F)F` (centres unmarked) [II-700, [2-(Difluoromethyl)-1-[6-[6-(difluoromethyl)imidazo[1,2-b]pyridazin-3-yl]pyrimidin-4-yl]-3-piperidyl]imino-dimethyl-λ^6-sulfanone] gave a pIC50 in assay [1] above 6.30. This compound also showed a negative logarithm of the Ki (pKi) on GCN2 kinase above 8.00.

For `CS(C)(=O)=NC1CCCN(c2cc(-c3cnc4ccc(C(F)F)nn34)ncn2)C1C(F)F` (centres unmarked) [II-701, [2-(Difluoromethyl)-1-[6-[6-(difluoromethyl)imidazo[1,2-b]pyridazin-3-yl]pyrimidin-4-yl]-3-piperidyl]imino-dimethyl-λ^6-sulfanone], in assay [1], the pIC50 is below 5.30. In addition, the pKi at GCN2 kinase is 6.00 to 8.00.

`CC1CN(c2cc(-c3cnc4ccc(C(F)(F)F)nn34)ncn2)C(C)C(c2cn[nH]c2)N1` (centres unmarked) [II-704, 3-(6-(2,5-Dimethyl-3-(1H-pyrazol-4-yl)piperazin-1-yl)pyrimidin-4-yl)-6-(trifluoromethyl)imidazo[1,2-b]pyridazine] gave a pIC50 in assay [1] below 5.30. This compound also gave a pKi at GCN2 kinase of 6.00 to 8.00.

For the compound `CC1CN(c2cc(-c3cnc4ccc(C(F)(F)F)nn34)ncn2)C(C)C(c2cn[nH]c2)N1` (centres unmarked) [II-705, 3-(6-(2,5-Dimethyl-3-(1H-pyrazol-4-yl)piperazin-1-yl)pyrimidin-4-yl)-6-(trifluoromethyl)imidazo[1,2-b]pyridazine], in assay [1], the pIC50 was above 6.30. Moreover, the pKi on GCN2 kinase is above 8.00.

`CC1C(c2cn[nH]c2)NCCN1c1cc(-c2cnc3ccc(C(F)(F)F)nn23)ncn1` (centres unmarked) [II-706, 3-(6-(2-Methyl-3-(1H-pyrazol-4-yl)piperazin-1-yl)pyrimidin-4-yl)-6-(trifluoromethyl)imidazo[1,2-b]pyridazine] had a pIC50 in assay [1] of 5.30 to 6.30. On GCN2 kinase, this compound had a pKi of 6.00 to 8.00.

Compound `CC1NCCN(c2cc(-c3cnc4ccc(C(F)(F)F)nn34)ncn2)C1c1cn[nH]c1` (centres unmarked) [II-707, 3-(6-(3-Methyl-2-(1H-pyrazol-4-yl)piperazin-1-yl)pyrimidin-4-yl)-6-(trifluoromethyl)imidazo[1,2-b]pyridazine] showed a pIC50 in assay [1] below 5.30. For the same compound, at GCN2 kinase, the pKi is 6.00 to 8.00.

Compound `FC(F)c1ccc2ncc(-c3cc(-c4cnn(C5CCOCC5)c4)ncn3)n2n1` [II-709, 6-(Difluoromethyl)-3-[6-(1-tetrahydropyran-4-ylpyrazol-4-yl)pyrimidin-4-yl]imidazo[1,2-b]pyridazine] had a pIC50 in assay [1] of 5.30 to 6.30. The compound also gave a pKi on GCN2 kinase of 6.00 to 8.00.

The compound `CC1CC(P(C)(C)=O)CN(c2cc(-c3cnc4ccc(C(F)F)nn34)ncn2)C1` (centres unmarked) [II-710, 6-(Difluoromethyl)-3-[6-(3-dimethylphosphoryl-5-methyl-1-piperidyl)pyrimidin-4-yl]imidazo[1,2-b]pyridazine] showed a pIC50 in assay [1] of 5.30 to 6.30. For the same compound, at GCN2 kinase, the pKi was 6.00 to 8.00.

Regarding `CC1CC(P(C)(C)=O)CN(c2cc(-c3cnc4ccc(C(F)F)nn34)ncn2)C1` (centres unmarked) [II-711, 6-(Difluoromethyl)-3-[6-(3-dimethylphosphoryl-5-methyl-1-piperidyl)pyrimidin-4-yl]imidazo[1,2-b]pyridazine], the pIC50 in assay [1] is 5.30 to 6.30. The pKi at GCN2 kinase was 6.00 to 8.00.

In assay [1], `FC(F)(F)c1ccc2ncc(-c3cc(N4CCCC(c5c[nH]cn5)C4)ncn3)n2n1` (centres unmarked) [II-715] showed a negative-log IC50 (pIC50) of 5.30 to 6.30. The pKi at GCN2 kinase was 6.00 to 8.00.
